Assay: solubility of SCH-530348 in the coating solvent ethanol
Assay type: physicochemical
Conditions: stent coating solution
Description: In the following Example, ethanol is chosen as the solvent of choice. The PAR-1 antagonist is SCH-530348. […] Persons having ordinary skill in the art of polymer chemistry can easily pair the appropriate solvent system to the polymer-drug combination and achieve optimum results with no more than routine experimentation.
250 mg of SCH-530348 is carefully weighed and added to a small neck glass bottle containing 2.8 ml of ethanol. The SCH-530348-ethanol suspension is then thoroughly mixed until a clear solution is achieved.

solubility in ethanol: freely soluble
SMILES: CCOC(=O)N[C@@H]1CC[C@@H]2[C@@H](C1)C[C@H]1C(=O)O[C@H](C)[C@H]1[C@H]2/C=C/c1ccc(-c2cccc(F)c2)cn1 [SCH-530348]

Source: US20090297576A1, “Local Delivery of PAR-1 Antagonists to Treat Vascular Complications” (MEDTRONIC VASCULAR, INC., priority 2008, published 2009)
